# Read-outs that look alike come from different tables or passages of the source. Square brackets hold non-standard residues; d marks the D form. Ends that are not written are not given here. Peptide text beside a SMILES is read from it.
# Experiments:
# DRB1*0701 (DR7) = DRB1*0701 (DR7) (Homo sapiens, UniProt P01903+P01911, A100R/A102G/A103Q/D57E/D86V/E43K/F76Y/K127E/L162R/M171V/P40G/Q125H/Q99D/R33Q/R42Y/R54Q/S133A/S66F/T210M/V115G/Y107V/Y59L/Y89S); experiment: Class II peptide-binding assay, DR7;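 also: unlabeled peptides compete with an iodinated probe peptide for binding to affinity-purified HLA-DR at neutral pH, DR amount titered to bind a small tracer fraction, IC50 approximating Kd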
# Description: (§1) Class II peptide-binding assays. […] These assays were chosen as to be representative of the most common DR alleles.
# (§2) Radiolabeled peptides were iodinated using the chloramine-T method. […] In appropriate stoichiometric conditions, the IC50 of an unlabeled test peptide to the purified DR is a reasonable approximation of the affinity of interaction (Kd). Peptides were tested in two to four completely independent experiments. […] Final detergent concentration in the incubation mixture was 0.05% Nonidet P-40. Assays were performed at pH 7.0 with the exception of DR3, which was performed at pH 4.5, and DRw53, which was performed at pH 5.0.
# (§3) All subsequent inhibition and direct binding assays were the performed using these class II concentrations.
# DRB5*0101 (DR2w2a) = target: T1, DRB5*0101 (DR2w2a) (Homo sapiens, UniProt P01903+Q30154); experiment: Class II peptide-binding assay, DR2w2a (DR2w2B2);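 also: competitive binding assay: unlabeled peptide inhibiting binding of a radiolabeled probe peptide to purified DR molecules at pH 7.0, IC50 approximating Kd, lower means stronger binding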
# T1 construct: used as sources of human HLA class II molecules; endogenous in cells; host or cells: GM3107 (EBV-transformed homozygous B cell line)
# DRB10404 (DR4w14) = target: T2, DRB10404 (DR4w14) (Homo sapiens, UniProt P01903+P01911, A100R/A169T/F76Y/I96L/K127E/L162R/M171V/N62H/P40V/Q125Y/R42H/S133A/S149N/S66Y/V209L/W38E); experiment: Class II peptide-binding assay, DR4w14;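 also: unlabeled peptides compete with a radiolabeled probe for binding to affinity-purified HLA-DR, neutral pH, class II amount titrated to bind a small fraction of label, IC50 approximates Kd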
# T2 construct: used as sources of human HLA class II molecules; endogenous in cells; host or cells: BIN40 (EBV-transformed homozygous B cell line)
# DRB1*0101 (DR1) = target: T3, DRB1*0101 (DR1) (Homo sapiens, UniProt P01903+P01911, A100R/D57E/F55L/F60I/F76Y/I96L/L162R/M171V/P40L/Q125E/R42F/V115G/Y59C); experiment: Class II peptide-binding assay, DR1;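 also: competition assay: unlabeled test peptides inhibit binding of a radiolabeled probe peptide to purified DR, with half-maximal inhibition taken as an approximate dissociation constant Kd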
# T3 construct: used as sources of human HLA class II molecules; endogenous in cells; host or cells: LG2 (EBV-transformed homozygous B cell line)
# DRB1*1101 (DR5w11) = target: T4, DRB1*1101 (DR5w11) (Homo sapiens, UniProt P01903+P01911, A100R/A169T/A87E/I96F/K41T/L162R/M171V/P40S/Q125H/Q178H/Q39Y/Q99D/R42S/S66Y/T262R/V115G/W38E); experiment: Class II peptide-binding assay, DR5w11;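 also: competition by unlabeled test peptide against iodinated probe peptide binding to affinity-purified HLA-DR, class II amount titrated beforehand, half-maximal inhibitory concentration read as approximate Kd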
# T4 construct: used as sources of human HLA class II molecules; endogenous in cells; host or cells: SWEIG (EBV-transformed homozygous B cell line)
# DRB1*0401 (DR4w4) = target: T5, DRB1*0401 (DR4w4) (Homo sapiens, UniProt P01903+P01911, A100K/A169T/F76Y/I96L/K127E/L162R/M171V/N62H/P40V/Q125Y/R42H/S133A/S149N/S66Y/V115G/V209L/W38E); experiment: Class II peptide-binding assay, DR4w4;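 also: unlabeled test peptides compete with a radiolabeled probe peptide for binding to affinity-purified HLA-DR, with DR amount titrated to capture a small fraction of label, IC50 approximating Kd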
# T5 construct: used as sources of human HLA class II molecules; endogenous in cells; host or cells: PREISS (EBV-transformed homozygous B cell line)
# Description: as §1, §2, §3
# DRB1*0301 (DR3w17) = target: T6, DRB1*0301 (DR3w17) (Homo sapiens, UniProt P01903+P01911, A100K/A102G/A103R/A169T/F55Y/I96L/K41T/L162R/M171V/P40S/Q125H/Q178H/Q39Y/R42S/S66N/T106N/T262R/W38E/Y61H); experiment: Class II peptide-binding assay, DR3 (pH 4.5);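 also: unlabeled peptide competing with a radiolabeled probe peptide for binding to affinity-purified HLA-DR3, IC50 regarded as an approximation of Kd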
# T6 construct: used as sources of human HLA class II molecules; endogenous in cells; host or cells: MAT (EBV-transformed homozygous B cell line)
# [1] = read-out: DR7 nM (In IC50 Format), purified HLA DR7
# [2] = read-out: DR2w2B2 nM (In IC50 Format), purified HLA DR2w2β2
# [3] = read-out: DR4w14 nM (In IC50 Format), purified HLA DR4w14
# [4] = read-out: DR1 nM (In IC50 Format), purified HLA DR1
# [5] = read-out: DR5w11 nM (In IC50 Format), purified HLA DR5w11
# [6] = read-out: DR4w4 nM (In IC50 Format), purified HLA DR4w4
# [7] = read-out: DR3 nM (In IC50 Format), purified HLA DR3
# [8] = read-out: DR7 nM, Table VIII, In IC50 Format
# [9] = read-out: DR2w2B2 nM, Table VIII, In IC50 Format
# [10] = read-out: DR4w14 nM, Table VIII, In IC50 Format
# [11] = read-out: DR1 nM, Table VIII, In IC50 Format
# [12] = read-out: DR5w11 nM, Table VIII, In IC50 Format
# [13] = read-out: DR4w4 nM, Table VIII, In IC50 Format
# [14] = read-out: DR3 nM, Table VIII, In IC50 Format
# [15] = read-out: In IC50 Format DR7, Table VIII
# [16] = read-out: In IC50 Format DR2w2β2, Table VIII
# [17] = read-out: In IC50 Format DR4w14, Table VIII
# [18] = read-out: In IC50 Format DR1, Table VIII
# [19] = read-out: In IC50 Format DR5w11, Table VIII
# [20] = read-out: In IC50 Format DR4w4, Table VIII
# [21] = read-out: In IC50 Format DR3, Table VIII
# T6 sequence (P01903 26-254, other chains not shown): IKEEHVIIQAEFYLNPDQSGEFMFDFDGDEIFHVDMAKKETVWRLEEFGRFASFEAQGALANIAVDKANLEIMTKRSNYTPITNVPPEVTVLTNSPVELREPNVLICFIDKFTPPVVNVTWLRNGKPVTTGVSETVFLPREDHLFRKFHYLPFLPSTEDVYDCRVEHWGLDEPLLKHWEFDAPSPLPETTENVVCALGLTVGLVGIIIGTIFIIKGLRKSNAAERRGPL
# T4 sequence (P01903 26-254, other chains not shown): as above
Molecule,IC50 (DRB1*0701 (DR7); [1]) [nM],IC50 (DRB5*0101 (DR2w2a); [2]) [nM],IC50 (DRB10404 (DR4w14); [3]) [nM],IC50 (DRB1*0101 (DR1); [4]) [nM],IC50 (DRB1*1101 (DR5w11); [5]) [nM],IC50 (DRB1*0401 (DR4w4); [6]) [nM],IC50 (DRB1*0301 (DR3w17); [7]) [µM],also measured
YASFVSQTAQRLFY-NH2 [Peptide 717.03],25,8,6250,1.9,2500,11,15.8,–
CC(C)C[C@H](NC(=O)[C@@H](NC(=O)[C@H](C)NC(=O)[C@H](C)NC(=O)[C@H](CCCCN)NC(=O)[C@@H](NC(=O)[C@H](Cc1ccccc1)NC(=O)[C@H](CCCCN)NC(=O)[C@@H](C)N)C(C)C)[C@@H](C)O)C(=O)N[C@@H](CCCCN)C(=O)N[C@@H](C)C(=O)N[C@@H](C)C(=O)N[C@H](C)C(N)=O [Peptide 909.02] (H-[dA]KFVKAATLKAA[dA]-NH2),–,–,–,–,–,–,–,IC50 (DRB1*0701 (DR7); [8]): 208 nM; IC50 (DRB5*0101 (DR2w2a); [9]): 8 nM; IC50 (DRB10404 (DR4w14); [10]): 33.3 nM; IC50 (DRB1*0101 (DR1); [11]): 2.5 nM; IC50 (DRB1*1101 (DR5w11); [12]): 5.7 nM; IC50 (DRB1*0401 (DR4w4); [13]): 4.7 nM; IC50 (DRB1*0301 (DR3w17); [14]): 5.66 µM
KYLEFISEAIIHVLHSR [Peptide 508.01],–,–,–,–,–,–,–,IC50 (DRB1*0701 (DR7); [15]): 338 nM; IC50 (DRB5*0101 (DR2w2a); [16]): 20000 nM; IC50 (DRB10404 (DR4w14); [17]): 2500 nM; IC50 (DRB1*0101 (DR1); [18]): 294 nM; IC50 (DRB1*1101 (DR5w11); [19]): 4000 nM; IC50 (DRB1*0401 (DR4w4); [20]): 136 nM; IC50 (DRB1*0301 (DR3w17); [21]): 25 µM
CC[C@H](C)[C@H](NC(=O)[C@H](CCCNC(=N)N)NC(=O)[C@H](CO)NC(=O)[C@H](Cc1ccccc1)NC(=O)[C@@H](NC(=O)[C@H](CO)NC(=O)[C@H](CO)NC(=O)[C@H](CC(C)C)NC(=O)[C@@H]1CCCN1C(=O)[C@H](CO)NC(=O)[C@H](C)NC(=O)[C@@H](NC(=O)[C@@H](NC(=O)[C@H](CC(C)C)NC(=O)[C@@H](NC(=O)[C@@H]1CCCN1C(=O)[C@@H](N)CC(N)=O)C(C)C)[C@@H](C)O)[C@@H](C)O)[C@@H](C)CC)C(=O)O [Peptide 801.02],63.1,20000,6.5,714,–,54.1,300,–
RLANSLVHSSNNFGAILSS [Peptide 735.03],556,10000,12.8,84.7,202,11,25,–
KIAKMEKASSVFNVVNS [Peptide 526.01],–,–,–,–,–,–,–,IC50 (DRB1*0701 (DR7); [15]): > 1250 nM; IC50 (DRB5*0101 (DR2w2a); [16]): 3330 nM; IC50 (DRB10404 (DR4w14); [17]): 1280 nM; IC50 (DRB1*0101 (DR1); [18]): 35.7 nM; IC50 (DRB1*1101 (DR5w11); [19]): 64.5 nM; IC50 (DRB1*0401 (DR4w4); [20]): 187 nM; IC50 (DRB1*0301 (DR3w17); [21]): 130 µM
YAAYVKLTAARKFA-NH2 [Peptide 806.03],4.4,0.7,4550,2.1,1.3,21.4,23.1,–
LSGSHLVEALYLVSGERGFF [Peptide 734.02],124,2860,1020,14.4,10000,865,30,–
LLVIVELIPSTSS [Peptide 778.00],5000,2220,82.5,67.6,1110,28.1,60,–
CC(C)C[C@H](NC(=O)[C@@H](NC(=O)[C@H](C)NC(=O)[C@H](C)NC(=O)[C@H](CCCCN)NC(=O)[C@H](C)NC(=O)[C@H](Cc1ccccc1)NC(=O)[C@H](CCCCN)NC(=O)[C@@H](C)N)[C@@H](C)O)C(=O)N[C@@H](CCCCN)C(=O)N[C@@H](C)C(=O)N[C@@H](C)C(=O)N[C@H](C)C(N)=O [Peptide 871.01] (H-[dA]KFAKAATLKAA[dA]-NH2),–,–,–,–,–,–,–,IC50 (DRB1*0701 (DR7); [8]): 301 nM; IC50 (DRB5*0101 (DR2w2a); [9]): 14.7 nM; IC50 (DRB10404 (DR4w14); [10]): 9.6 nM; IC50 (DRB1*0101 (DR1); [11]): 4.2 nM; IC50 (DRB1*1101 (DR5w11); [12]): 14.6 nM; IC50 (DRB1*0401 (DR4w4); [13]): 3.1 nM; IC50 (DRB1*0301 (DR3w17); [14]): 37.5 µM
TSATQRLANSLVHSSNNFG [Peptide 735.02],373,10000,13.2,111,130,5.4,33.3,–
